Reference: PMC12249905, “Substituted Triazole-3,5-Diamine Compounds as Novel Human Topoisomerase III Beta Inhibitors” (International Journal of Molecular Sciences, 2025)

Tests used:
[1] = Cell viability of human dermal fibroblasts (CellTiter-Blue); assay type: cell-based; conditions: primary human dermal fibroblasts (HdFa), 100 µM (highest concentration), 24 h exposure, relative to untreated control
Method: Human dermal fibroblasts (HdFa; PCS-210-012™, ATCC, Manassas, VA, USA) were cultured in Dulbecco’s Modified Eagle Medium (DMEM; supplemented with GlutaMAX™ and sodium pyruvate; Gibco, Waltham, MA, USA), containing 10% fetal bovine serum (FBS; Gibco) and 1% penicillin-streptomycin (10,000 U/mL; Gibco). Cells were maintained in T75 tissue culture flasks (Thermo Scientific Nunc™, Roskilde, Denmark) under standard incubation conditions (37 °C, 5% CO2, humidified atmosphere). Upon reaching confluency, cells were harvested and seeded into black-walled, clear-bottom, 96-well plates at a density of 5000 cells/well in 100 µL of complete growth medium. Following overnight incubation, the cells reached approximately 80–90% confluence. […]
After 24 h of compound exposure, 20 µL of CellTiter-Blue® reagent (Promega, WI, USA) was added to each well. Plates were incubated for an additional 2 h at 37 °C, after which the fluorescence of the metabolized resorufin product was measured using a Synergy Multi-Mode Plate Reader (BioTek Instruments, Winooski, VT, USA) at an excitation wavelength of 560 nm and an emission wavelength of 590 nm. Cellular viability in response to the test compounds was expressed as a percentage relative to the untreated control group.(1) Cell viability (%)=Fluorescenceintensityoftreatedcells/Fluorescenceintensityofcontrolcells×[…]

[2] = biological target: T1, human TOP3B (Homo sapiens, UniProt O95985); experiment: Assay of inhibition of human TOP3B relaxation activity (chloroquine gel electrophoresis, TDRD3 present); assay type: biochemical; conditions: for IC50: DNA relaxation, 18 nM TOP3B and TDRD3, supercoiled pBAD/Thio plasmid, 37 °C 1 h; for Inhibition of the DNA relaxation activity of human TOP3B: tested at up to 200 µM
T1 construct: GST (N); 6xHis (C); purchased Genscript (custom production); host or cells: sf9 insect cells (TOP3B); E. coli Rosetta(DE3) (TDRD3, made in house)
T1 sequence (O95985 1-862): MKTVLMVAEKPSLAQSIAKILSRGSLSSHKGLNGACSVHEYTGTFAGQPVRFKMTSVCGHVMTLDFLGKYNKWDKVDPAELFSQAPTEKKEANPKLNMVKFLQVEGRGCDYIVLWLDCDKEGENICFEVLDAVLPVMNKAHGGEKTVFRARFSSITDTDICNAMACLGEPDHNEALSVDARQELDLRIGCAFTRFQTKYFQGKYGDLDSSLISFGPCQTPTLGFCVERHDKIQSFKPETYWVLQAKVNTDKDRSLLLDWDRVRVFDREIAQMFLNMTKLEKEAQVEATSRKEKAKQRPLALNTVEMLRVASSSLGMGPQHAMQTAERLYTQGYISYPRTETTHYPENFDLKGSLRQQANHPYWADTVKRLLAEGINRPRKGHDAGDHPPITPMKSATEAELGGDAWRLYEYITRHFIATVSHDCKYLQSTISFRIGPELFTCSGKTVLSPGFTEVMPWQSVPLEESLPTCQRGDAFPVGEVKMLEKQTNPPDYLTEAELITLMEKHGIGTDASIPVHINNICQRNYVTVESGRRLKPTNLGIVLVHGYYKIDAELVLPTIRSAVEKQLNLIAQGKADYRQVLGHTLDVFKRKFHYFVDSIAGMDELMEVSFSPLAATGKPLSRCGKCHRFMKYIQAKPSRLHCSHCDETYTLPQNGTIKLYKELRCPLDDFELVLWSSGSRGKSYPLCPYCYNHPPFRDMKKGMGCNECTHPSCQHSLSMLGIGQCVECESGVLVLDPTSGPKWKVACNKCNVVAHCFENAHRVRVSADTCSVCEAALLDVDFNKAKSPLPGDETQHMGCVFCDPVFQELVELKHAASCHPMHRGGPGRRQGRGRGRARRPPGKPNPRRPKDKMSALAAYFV
From the text: Human TOP3B protein was obtained through custom production by Genscript. The coding sequence of human TOP3B was custom synthesized by Genscript and cloned into vector pFastBacGST to generate the recombinant baculovirus expressing human TOP3B protein with the N-terminal GST tag and C-terminal 6xHis tag. Following expression in sf9 insect cells, the recombinant TOP3B protein was purified to >95% homogeneity by Genscript using GST column and superdex 200 16/600G chromatography. A buffer containing 20 mM of Tris-HCl (pH 7.5), 750 mM of KCl, 10% glycerol, 1 mM of EDTA, 0.05% NP-40, and 1mM of DTT was used for storage and dilution.
The presence of the TDRD3 protein enhances the relaxation activity of human TOP3B through the direct binding of the proposed TOP3B hinge region for gate opening and closing. The human TDRD3 coding sequence was amplified by PCR from the TDRD3 clone in pEGFP-C1 [45] using a forward primer of 5′-[…]-3′ and a reverse primer of 5′-[…]-3′. The amplified TDRD3 gene was joined with the backbone of the DHFR-His plasmid (from New England BioLab) using the NEB HiFi assembly kit with the forward primer 5′-[…]-3′ and the reverse primer 5′-[…]-3′ so that the TDRD3 gene replaced the DHFR gene. The his-tagged TDRD3 protein was expressed from the T7 promoter in E. coli Rosetta(DE3) cells and purified using the HisPur Ni-NTA spin column from Thermo Fisher according to the manufacturer’s protocol.
Inhibition of the relaxation activity of human TOP3B was carried out in a reaction buffer containing 20 mM of HEPES-KOH, with a pH of 7.5, 1 mM of DTT, 0.1 mg/mL of BSA, and 5 mM of MgCl2. TOP3B and TDRD3 were added at 18 nM to each reaction mix followed by 0.5 μL of DMSO or indicated concentrations of compounds, and lastly by the addition of 500 ng of supercoiled pBAD/Thio plasmid DNA (purified by CsCl gradient centrifugation) for a final reaction volume of 20 μL. After mixing by gentle vortex, the reaction mixtures were spun down and incubated at 37 °C for 1 h. The relaxation reactions were terminated by the addition of 1 μL of 10% SDS and 2 μL of 800 units/mL of proteinase K (New England Biolabs) and incubated at 45 °C for 30 min. Following the addition of 5 μL of stop solution (50 mM of EDTA, 50% glycerol, and 0.5% v/v bromophenol blue), the reaction products were analyzed in a 1% agarose gel with TAE (40 mM of Tris-acetate, pH 8.0, 2 mM of EDTA) buffer containing 5 μg/mL of chloroquine at 25 V (1 V/cm) for 18 h. Gels were washed with TAE buffer for 1 h and 50 mM of NaCl for 1 h to remove the chloroquine, and finally with deionized water for 30 min. Gels were stained for 2 h with 1 μg/mL of SYBR Gold solution (Thermo Fischer Scientific, Waltham, MA, USA). Gels were destained with deionized water for 15 min and photographed over UV light with the AlphaImager system. The amount of the relaxed DNA produced by TOP3B in each reaction was quantified using the AlphaImager software version 1.5.0 to calculate the percentage of inhibition versus the DMSO control.

[3] = biological target: T2, human TOP1 (Homo sapiens, UniProt P11387); experiment: Assay of inhibition of human TOP1 relaxation activity (gel electrophoresis); assay type: biochemical; conditions: DNA relaxation, 1 unit enzyme, supercoiled pBAD/Thio plasmid, 37 °C 30 min
T2 construct: made in house; host or cells: Saccharomyces cerevisiae strain EKY3
T2 sequence (P11387 1-765): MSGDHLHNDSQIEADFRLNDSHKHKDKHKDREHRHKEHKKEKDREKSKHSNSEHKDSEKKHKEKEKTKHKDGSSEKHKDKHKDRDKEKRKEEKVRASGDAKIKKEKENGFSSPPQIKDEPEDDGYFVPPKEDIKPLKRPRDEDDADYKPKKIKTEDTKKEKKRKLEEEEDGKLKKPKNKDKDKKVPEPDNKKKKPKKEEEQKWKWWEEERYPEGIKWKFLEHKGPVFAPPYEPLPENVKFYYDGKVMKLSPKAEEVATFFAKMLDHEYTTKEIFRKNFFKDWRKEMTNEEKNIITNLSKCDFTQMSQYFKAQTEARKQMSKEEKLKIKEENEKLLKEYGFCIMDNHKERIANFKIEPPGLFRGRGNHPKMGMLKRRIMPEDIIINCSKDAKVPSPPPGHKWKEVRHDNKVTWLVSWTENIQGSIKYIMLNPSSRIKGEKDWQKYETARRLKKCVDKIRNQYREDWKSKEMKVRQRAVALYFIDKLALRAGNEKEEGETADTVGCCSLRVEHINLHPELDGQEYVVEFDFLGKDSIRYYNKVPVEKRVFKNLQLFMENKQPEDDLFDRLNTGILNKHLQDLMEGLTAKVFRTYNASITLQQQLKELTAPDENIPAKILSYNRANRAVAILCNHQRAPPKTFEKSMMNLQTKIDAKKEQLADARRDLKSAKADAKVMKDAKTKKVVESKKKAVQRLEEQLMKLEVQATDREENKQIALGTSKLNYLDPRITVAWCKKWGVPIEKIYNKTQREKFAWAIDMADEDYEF
Method: Recombinant human TOP1 was expressed from clone pYES2-TOP1 transformed into Saccharomyces cerevisiae strain EKY3 [46]. Inhibition of TOP1 relaxation activity was assayed as described in a 20 µL reaction containing 200 ng of supercoiled pBAD/Thio plasmid DNA and 1 unit of enzyme in 10 mM of Tris-HCl, with a pH of 8.0, 1 mM of EDTA, 150 mM of NaCl, 0.1 mM of spermidine, 0.1 mg/mL of BSA, and 5% glycerol. The reactions were incubated at 37 °C for 30 min before the addition of 4 µL of stop solution (6% SDS, 0.6% (wv/v)) bromophenol blue and 40% glycerol. Gel electrophoresis for the separation of the supercoiled DNA substrate from the relaxed DNA was conducted in 1% agarose gel with TAE buffer for 20 h at 25 V. The DNA was stained with ethidium bromide for an hour and then soaked in water for 5 min. Gels were photographed over UV light with the AlphaImager system. The amount of the supercoiled DNA substrate remaining in each reaction was quantified using the AlphaImager software to calculate the percentage of inhibition versus the DMSO control.

SMILES | Inhibition of the DNA relaxation activity of human TOP3B [2] | also measured
CC(C)[C@H](N)C(=O)n1nc(Nc2ccccc2/C=C/C(N)=O)nc1N [2710-33-343] |  | viability at 24 h, 100 µM [1]: ~60%
CC(C)C[C@H](N)C(=O)n1nc(Nc2ccccc2/C=C/C(N)=O)nc1N [2710-34-357] |  | IC50 [2]: 34.5 µM; IC50 [3]: 31.9 µM
Nc1nc(Nc2ccc3c(c2)CC[C@@H](N2CCCC2)CC3)nn1-c1cc2c(nn1)-c1ccccc1CCC2 [Bemcentinib] | Inhibition was observed only for bemcentinib | IC50 [2]: 34.3 µM; Selectivity for inhibition of TOP3B versus TOP1 ([2]; comparison of IC50 values TOP3B vs TOP1): inhibits TOP3B with greater potency than TOP1; IC50 [3]: 75.8 µM
CN1CCN(C2CCN(C(=O)Nc3cc(Oc4ccc(NC(=O)C5(C(=O)Nc6ccc(F)cc6)CC5)c(F)c4)ccn3)CC2)CC1 [Golvatinib] | Inhibition was observed only for bemcentinib | 
Cc1cn(-c2cc(NC(=O)c3ccc(C)c(Nc4nccc(-c5cccnc5)n4)c3)cc(C(F)(F)F)c2)cn1 [Nilotinib] | Inhibition was observed only for bemcentinib | 
Cc1cn(-c2cc(NC(=O)c3ccc(C)c(Nc4nccc(-c5cnccn5)n4)c3)cc(C(F)(F)F)c2)cn1 [Radotinib] | Inhibition was observed only for bemcentinib | 
CNC(=O)c1cc(Oc2ccc(NC(=O)Nc3cc(C(C)(C)C)nn3-c3ccc4ncccc4c3)c(F)c2)ccn1 [Rebastinib] | Inhibition was observed only for bemcentinib | 
Cc1cc(Nc2ncnc3ccc(NC4=NC(C)(C)CO4)cc23)ccc1Oc1ccn2ncnc2c1 [Tucatinib] | Inhibition was observed only for bemcentinib | 
